This note sets out measurements from PMC7946002, “The development of novel cytochrome P450 2J2 (CYP2J2) inhibitor and the underlying interaction between inhibitor and CYP2J2” (Journal of Enzyme Inhibition and Medicinal Chemistry, 2021).

Data set [1] deals with T1, Human recombinant CYP2J2 (Homo sapiens, UniProt P51589).
T1 construct: purchased Cypex (Scotland, UK)
T1 sequence (P51589 1-502): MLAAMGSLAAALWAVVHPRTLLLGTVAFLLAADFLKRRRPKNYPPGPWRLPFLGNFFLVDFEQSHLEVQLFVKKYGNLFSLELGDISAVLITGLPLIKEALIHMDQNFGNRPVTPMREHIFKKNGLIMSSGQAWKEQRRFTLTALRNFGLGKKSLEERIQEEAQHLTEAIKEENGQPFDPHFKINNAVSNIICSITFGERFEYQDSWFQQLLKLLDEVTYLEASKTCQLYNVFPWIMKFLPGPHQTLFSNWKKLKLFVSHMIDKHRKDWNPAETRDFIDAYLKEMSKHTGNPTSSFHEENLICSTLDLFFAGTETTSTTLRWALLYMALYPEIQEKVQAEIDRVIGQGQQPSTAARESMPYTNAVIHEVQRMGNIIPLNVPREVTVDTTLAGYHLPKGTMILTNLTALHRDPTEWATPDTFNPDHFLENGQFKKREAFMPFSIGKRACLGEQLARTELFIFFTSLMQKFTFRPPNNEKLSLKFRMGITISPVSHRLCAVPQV
Kind of data set: Inhibition activity of Piperine derivatives towards CYP2J2 (BnXPI probe, IC50). To be noted: for IC50: CYP2J2 3.75 pmol/mL, BnXPI 4 μM, 30 min, triplicate, mean ± SD, read-out: Inhibitory activity (IC50) CYP2J2; for increase of inhibition activity compared with Piperine: IC50 versus Piperine. In kind it is biochemical. As for the experimental part: In our previous study, BnXPI was developed to be the first selective fluorescent probe for CYP2J2[24]. Thus, with the help of the fast and sensitive advantages of fluorescence technology, the potential inhibitory effect of 108 herbal medicines (Table S1) towards CYP2J2 was screened. In brief, in the standard incubation system (100 mM phosphoric acid buffer, pH 7.4, NADPH generate system, BnXPI and extract of herbal medicines), BnXPI was set at 4 μM, and the concentration of CYP2J2 was 0.01 nmol/mL, after the pre-incubation of BnXPI and herbal medicines (final concentration was 20 μg/mL) for 3 min, NADP^+ was added to initiate the reaction. After additional 30 min (mins) incubation, 100 μL ice acetonitrile was added to terminate the reaction and followed a 20000 g centrifugation at 4 °C, the supernatant was collected and assay on a Synergy H1 Microplate Reader (Bio-Tek). The blank solvent replaces the extract of herbal medicines was set as the control group. According to the screening method mentioned above, various concentration of Piperine derivatives were added into our standard incubation system and incubated with CYP2J2, probe BnXPI for 30 min. The concentration of CYP2J2 was set at 3.75 pmol/mL, the concentration of BnXPI was 4 μM. The control group was added blank solvent instead of the inhibitors.

Data set [2] has as its target T1, Human recombinant CYP2J2. Kind of data set: Inhibition kinetic study towards CYP2J2 (Lineweaver-Burk and Dixon plots). To be noted: for Ki: BnXPI 0–8 μM; for inhibition type towards CYP2J2: intersection point in Lineweaver–Burk plot. Type of data set: biochemical. How it is done:
In order to clarify the inhibition type of compound 9a, 9k, and 9l towards CYP2J2, the inhibition kinetics were also performed. Briefly, the inhibition activity of target compounds towards the metabolism kinetic of BnPXI (0–8 μM) mediated by CYP2J2 was determinated under the different concentrations of inhibitors. At last, Lineweaver–Burk and Dixon plots were used to fit the data as previously described[25]^,[26]. The inhibition kinetic type was evaluated by determining the intersection point in the Lineweaver–Burk plots. […] (1) v=Vmax/1+Km/[S](1+[I]/Ki) (2) v=Vmax/(1+Km/[S])(1+[I]/Ki) (3) v=Vmax/(1+Km/[S]+[I]/Ki) (4) v=Vmax/Km/[S](1+[I]/Ki)+(1+[I]/αKi)

On to `O=C(/C=C/C=C/c1ccc2c(c1)OCO2)N1CCCCC1` [9a, (2E,4E)-5-(benzo[d][1,3]dioxol-5-yl)-1-(piperidin-1-yl)penta-2,4-dien-1-one], for which the 50% inhibitory concentration (IC50) in data set [1] came to 440 ± 50 nM. In data set [2], the inhibitory constant (Ki) amounted to 500 nM.

For the compound `O=C(/C=C/C=C/c1ccc2c(c1)OCO2)NC1CC1` [9b, (2E,4E)-5-(benzo[d][1,3]dioxol-5-yl)-N-cyclopropylpenta-2,4-dienamide], in data set [1], the IC50 was found to be 4720 ± 730 nM.

With `O=C(/C=C/C=C/c1ccc2c(c1)OCO2)N1CCCC1` [9c, (2E,4E)-5-(benzo[d][1,3]dioxol-5-yl)-1-(pyrrolidin-1-yl)penta-2,4-dien-1-one], the concentration for half-maximal inhibition (IC50) in data set [1] amounted to 1580 ± 220 nM.

For `O=C(/C=C/C=C/c1ccc2c(c1)OCO2)NC12CC3CC(CC(C3)C1)C2` [9d, (2E,4E)-N-((3s,5s,7s)-adamantan-1-yl)-5-(benzo[d][1,3]dioxol-5-yl)penta-2,4-dienamide], the half-maximal inhibitory concentration (IC50) in data set [1] turned out to be 9330 ± 1060 nM.

As for `O=C(/C=C/C=C/c1ccc2c(c1)OCO2)N1CCOCC1` [9e, (2E,4E)-5-(benzo[d][1,3]dioxol-5-yl)-1-morpholinopenta-2,4-dien-1-one], the half-maximal inhibitory concentration (IC50) in data set [1] amounted to 12000 ± 1350 nM.

For the compound `C[C@@H]1COCCN1C(=O)/C=C/C=C/c1ccc2c(c1)OCO2` [9f, (2E,4E)-5-(benzo[d][1,3]dioxol-5-yl)-1-((R)-3-methylmorpholino)penta-2,4-dien-1-one], in data set [1], the concentration for half-maximal inhibition (IC50) is 4660 ± 560 nM.

For the compound `C[C@H]1COCCN1C(=O)/C=C/C=C/c1ccc2c(c1)OCO2` [9g, (2E,4E)-5-(benzo[d][1,3]dioxol-5-yl)-1-((S)-3-methylmorpholino)penta-2,4-dien-1-one], the IC50 in data set [1] is 2250 ± 560 nM.

Consider `O=C(/C=C/C=C/c1ccc2c(c1)OCO2)N1CCSCC1` [9h, (2E,4E)-5-(benzo[d][1,3]dioxol-5-yl)-1-thiomorpholinopenta-2,4-dien-1-one], for which the IC50 in data set [1] was 750 ± 80 nM.

Turning to `O=C(/C=C/C=C/c1ccc2c(c1)OCO2)N1CCS(=O)(=O)CC1` [9i, (2E,4E)-5-(benzo[d][1,3]dioxol-5-yl)-1–(1,1-dioxidothiomorpholino)penta-2,4-dien-1-one], the half-inhibitory concentration (IC50) in data set [1] was 1240 ± 450 nM.

For `CN(C)CCNC(=O)/C=C/C=C/c1ccc2c(c1)OCO2` [9j, (2E,4E)-5-(benzo[d][1,3]dioxol-5-yl)-N-(2-(dimethylamino)ethyl)penta-2,4-dienamide], the half-maximal inhibitory concentration (IC50) in data set [1] came out at 11800 ± 1470 nM.

On to `CC(C)CN(CC(C)C)C(=O)/C=C/C=C/c1ccc2c(c1)OCO2` [9k, (2E,4E)-5-(benzo[d][1,3]dioxol-5-yl)-N,N-diisobutylpenta-2,4-dienamide], for which, in data set [1], the half-inhibitory concentration (IC50) was determined as 40 ± 8 nM and the “increase of inhibition activity compared with Piperine” value is “about 10 folds”. For the same compound, in data set [2], the inhibition constant (Ki) came to 110 nM and the “inhibition type towards CYP2J2” value is “competitive inhibition model”.

As for `O=C(/C=C/C=C/c1ccc2c(c1)OCO2)NCc1ccc(F)cc1` [9l, (2E,4E)-5-(benzo[d][1,3]dioxol-5-yl)-N-(4-fluorobenzyl)penta-2,4-dienamide], in data set [1], the IC50 stood at 50 ± 5 nM and the “increase of inhibition activity compared with Piperine” value is given as “about 10 folds”. Also, in data set [2], the inhibition constant Ki amounted to 74 nM and the “inhibition type towards CYP2J2” value was “competitive inhibition model”.

The IC50 is the concentration that inhibits the measured activity by half. The term Ki denotes a dissociation constant, usually derived from enzyme kinetics or from competition with a known ligand.
